# Test results as given in PubChem BioAssay (NCI).
# “And” between values parts separate entries of the source, which are not always exact repeats. Identical values can stand only once.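 These data come from cells grown in 96-well plates and exposed to compound for 48 hours at five concentrations. At the GI50, growth is halved. At the TGI there is no net growth.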
# How the values were obtained:
# Test in all cases: NCI tumour cell line growth inhibition, 48 h
# A498 renal = system: A498 renal
# A549 NSCLC = system: A549 NSCLC
# BT-549 breast = system: BT-549 breast
# HOP-62 NSCLC = system: HOP-62 NSCLC
# HS 578T breast = system: HS 578T breast
# NCI-H522 lung = system: NCI-H522 lung
# OVCAR-5 ovarian = system: OVCAR-5 ovarian
# OVCAR-8 ovarian = system: OVCAR-8 ovarian
# SK-MEL-5 melanoma = system: SK-MEL-5 melanoma
# T-47D breast = system: T-47D breast
Structure (SMILES),GI50 (A498 renal),TGI (A498 renal),GI50 (A549 NSCLC),TGI (A549 NSCLC),GI50 (BT-549 breast),TGI (BT-549 breast),GI50 (HOP-62 NSCLC),TGI (HOP-62 NSCLC),GI50 (HS 578T breast),TGI (HS 578T breast),GI50 (NCI-H522 lung),TGI (NCI-H522 lung),GI50 (OVCAR-5 ovarian),TGI (OVCAR-5 ovarian),GI50 (OVCAR-8 ovarian),TGI (OVCAR-8 ovarian),GI50 (SK-MEL-5 melanoma),TGI (SK-MEL-5 melanoma),GI50 (T-47D breast),TGI (T-47D breast)
NC(=S)N/N=C/c1ccc(OC(=O)COc2cc(Cl)c(Cl)cc2Cl)cn1,14200 nM,> 100 µM,24.4 µM,> 100 µM,3920 nM,> 100 µM,3680 nM,38.4 µM,51000 nM,> 100 µM,3170 nM,67.5 µM,50700 nM,> 100 µM,2.26 µM,> 100 µM,3420 nM,59.6 µM,2870 nM,> 100 µM
Cc1ccc(CNc2ccc3nc(CCC4CCCCC4)[nH]c3c2)cc1,1440 nM,4.32 µM,3.02 µM,17.6 µM,2450 nM,7.34 µM,2080 nM,4.83 µM,2160 nM,7.06 µM,1990 nM,5.13 µM,2520 nM,8.18 µM,3.21 µM,> 100 µM,1690 nM,3.09 µM,2560 nM,8.5 µM
CC1(C)Oc2ccc3ccc(=O)oc3c2C(O)C1O (stereo not given),,> 100 µM,,> 100 µM,,60.9 µM,,> 100 µM,,> 100 µM,,> 100 µM,,> 100 µM,,> 100 µM,,29.4 µM,,> 100 µM
O=C1C2CCN(CC2)C1CN1CCOCC1 (stereo not given),,31.2 µM,,37.5 µM,,4.53 µM,,34 µM,,82.1 µM,,1.99 µM,,13.5 µM,,13.6 µM,,31 µM,,3.93 µM
CCSC[C@@H]1C[C@](O)(c2ccc(Cl)cc2)[C@@H](c2ccc(Cl)cc2)O1,17800 nM,32.1 µM,17.3 µM,33.2 µM,15200 nM,28.9 µM,16700 nM,30.7 µM,18000 nM,39.6 µM,15500 nM,31.4 µM,18200 nM,34.3 µM,17.4 µM,45 µM,15300 nM,28.7 µM,14800 nM,38.6 µM
Fc1cccc(COc2ccc(Nc3ncnc4onc(-c5ccccc5)c34)cc2)c1,240 nM,3.18 µM,0.175 µM,> 100 µM,347 nM,> 100 µM,406 nM,> 100 µM,97.4 nM,2.02 µM,138 nM,0.905 µM,340 nM,29.3 µM,0.262 µM,> 100 µM,299 nM,30.4 µM,218 nM,> 100 µM
O=C1c2c(c(=O)[nH]c3ccccc23)[C@H](c2ccccc2)[C@@H]2CCCN12,1930 nM,9.09 µM,20.2 µM,> 100 µM,4840 nM,55.2 µM,4320 nM,34 µM,2890 nM,11.1 µM,8560 nM,> 100 µM,2700 nM,9.59 µM,3.62 µM,> 100 µM,2010 nM,5.07 µM,3460 nM,9.2 µM
COc1cc2nc(Nc3cccc(Cl)c3)nc(N)c2cc1OC,6570 nM,20.1 µM,9.89 µM,27.3 µM,13500 nM,27.8 µM,5810 nM,18.3 µM,6050 nM,31.6 µM,8440 nM,26.7 µM,17200 nM,35.4 µM,6.29 µM,22.6 µM,3270 nM,11.2 µM,5130 nM,24 µM
CCOC(=O)C(=Cc1ccc(C#N)cc1)C(=O)OCC,7840 nM,20.1 µM,4.11 µM,14.5 µM,2060 nM,4.9 µM,2730 nM,9.81 µM,4190 nM,37.9 µM,1480 nM,3.1 µM,2610 nM,11.2 µM,3.54 µM,11.4 µM,1920 nM,3.67 µM,2150 nM,7.96 µM
Cn1ncc(Cl)c1-c1cc(C(=O)N[C@H](CN)Cc2cccc(F)c2)sc1Cl,126 nM and 104 nM,0.705 µM and 0.779 µM,0.946 µM and 2.32 µM,> 10 µM and 16 µM,518 nM and 1330 nM,3.35 µM and 7.5 µM,1110 nM and 3130 nM,> 10 µM and 16.6 µM,200 nM and 339 nM,2.98 µM and 3.27 µM,1410 nM and 6340 nM,> 5.8 µM and 20.3 µM,2200 nM and 2690 nM,> 10 µM and 17.2 µM,3.82 µM and 8.34 µM,> 7.9 µM and 23.8 µM,1960 nM and 3640 nM,3.99 µM and 8.3 µM,27.2 nM and 49.2 nM,1.48 µM
CCC(CC)n1cnc2c(-c3cnc(N)cn3)nc(N3CC4CCC(C3)O4)nc21,74.9 nM,0.466 µM,0.405 µM,> 100 µM,108 nM,2.5 µM,1080 nM,> 100 µM,209 nM,1.61 µM,209 nM,> 100 µM,374 nM,> 100 µM,0.769 µM,> 100 µM,138 nM,1.21 µM,23.3 nM,0.217 µM
Cc1cc(OCc2nnc3n2S(=O)(=O)c2ccccc2N3C)ccc1Cl,,55.3 µM,,> 100 µM,,36.4 µM,,29.7 µM,,> 100 µM,,45.6 µM,,> 100 µM,,> 100 µM,,> 100 µM,,> 100 µM
COc1cc(-c2nn(-c3cccc(NC(=O)Nc4ccc(Cl)c(C(F)(F)F)c4)c3)cc2-c2ccncc2)ccc1Cl,837 nM,6.97 µM,1.02 µM,16.7 µM,2360 nM,10.2 µM,1310 nM,6.49 µM,1320 nM,18.3 µM,1140 nM,6.06 µM,3090 nM,11 µM,1.05 µM,5.87 µM,818 nM,2.89 µM,1230 nM,> 32.5 µM
